The source of these data is US10918713B2, “Epitopes from allergen proteins and methods and uses for immune response modulation” (LA JOLLA INSTITUTE FOR ALLERGY AND IMMUNOLOGY, priority 2012, dated 2021).

A word on the pIC50: it is −log10 of the IC50, conventionally taken in molar units. A higher pIC50 goes with a small IC50.

pIC50: −log10 of the molar value. Several values for one entry are separate records, joined by “and”; a condition that tells them apart may be missing. Equal values may be shown once.

For one assay, the target named is DPB1*0401 (Homo sapiens, UniProt P04440+P20036). Kind of assay: biochemical.
The target of another assay is DRB3*0202 (Homo sapiens, UniProt P01903+P79483, A212P/D57E/F66Y/L67A/R103Q/R218S/R40L/S89Y/T80R/V86D/Y55F/Y59H). Kind of assay: biochemical.
A further assay concerns the target DRB3*0101 (Homo sapiens, UniProt P01903+P79483). Kind of assay: biochemical.
A further assay deals with DPA1*0103/DPB1*0201 (Homo sapiens, UniProt P04440+P20036, A65V/A84D/A85E/K98E). The experiment in a line: biochemical.
Another assay concerns the target DRB4*0101 (Homo sapiens, UniProt P01903+P13762, G164S). The experiment in a line: biochemical.
The target of the next assay is DPA1*0201/DPB1*0101 (Homo sapiens, UniProt P04440+P20036, F191V/F38Y/F64Y/G113D/G114E/K142R/L158P/L37V/M105V/M116V/M62Q/P115A/Q81R/R125K/R223Q/T114A/T199I/T259P). The experiment in a line: biochemical.
Another assay addresses DPA1*0201/DPB1*0501 (Homo sapiens, UniProt P04440+P20036, A65V/A84E/F191V/F64L/G113D/G114E/K142R/L158P/M116V/M62Q/P115A/Q81R/R125K/T114A/T199I/T259P/V234M). The experiment in a line: biochemical.
Assay [1] deals with PBMC from allergic donors. Kind of assay: Dual ELISPOT, total IL-5 and IFN-γ response (SFC). In kind it is cell-based, human. Conditions: for Response (SFC/10^6) Total: sum of IFNg and IL-5, each table line is one donor. On the procedure: (§1) Spots were counted by computer-assisted image analysis (Zeiss, KS-ELISPOT reader, Munich, Germany).
(§2) Each assay was performed in triplicate. The level of statistical significance was determined with a Student's t-test using the mean of triplicate values of the response against relevant pools or individual peptides versus the response against the DMSO control.

In assay [2] the test system is PBMC from allergic donors. The experiment in a line: IFN-γ ELISPOT with extract-stimulated short-term lines. Format: cell-based, human. Conditions: positive donor/peptide response; each table line is one donor. The method, then:
as §1, §2

Assay [3] relates to PBMC from allergic donors. The experiment in a line: IL-5 ELISPOT with extract-stimulated short-term lines. In kind it is cell-based, human. Conditions: positive donor/peptide response; each table line is one donor. The method, then:
as §1, §2

Another assay concerns HLA-DP. The experiment in a line: HLA locus restriction, mAb inhibition of ELISPOT response. In kind it is cell-based, human. The settings on record: count; ≥50% inhibition by anti-HLA-DP mAb B7/21; 0/0/0 = locus could not be determined. The method, then: (§3) To determine the HLA locus restriction of identified epitopes, mAb inhibition assays were performed as described previously (11, 37). Preliminary determinations were made on control T cell clones of known specificity to determine optimal antibody doses leading to complete inhibition of the specific clones, and not associated with inhibition of clones known to be restricted by a different HLA allele or locus. This antibody concentration was then utilized in experiments where a dose response of antigenic peptide was tested in the presence or absence of the specific antibodies. Experimental determinations were performed utilizing ELISPOT assays specific for the particular lymphokine utilized to originally identify the particular epitope mapped.
(§4) For each antigenic region/donor combination short-term T cell lines were derived by extract stimulation of triplicate cultures of 2-3 million cells. IL-2 was added 5-8 days following stimulation. After 14 days of stimulation with the corresponding allergen extract (2-50 μg/ml), the HLA locus that restricted the response to the specific lymphokine was determined by measuring the capacity of mAbs specific for HLA-DR, DP or DQ to inhibit (block) the response. For this, PBMCs were incubated with 10 μg/ml of mAbs (Strategic Biosolutions, Windham, Me.) against HLA-DR (LB3.1), DP (B7/21) or DQ (SVPL3) 30 minutes prior to addition of 10 μg/ml of peptide. Cytokine production induced by positive peptides was then measured in ELISPOT assays as described above. The pan MHC class I Ab (W6/32) was used as a control. The decrease (inhibition) in cytokine production in the presence of an HLA locus specific mAb, relative to production in the absence of mAb, was determined.

In the next assay the test system is HLA-DQ. The description is as above. The settings on record: count; ≥50% inhibition by anti-HLA-DQ mAb SVPL3; 0/0/0 = locus could not be determined. In kind it is cell-based, human. On the procedure: as §3, §4
The next assay relates to HLA-DR. The description is as above. In kind it is cell-based, human. The settings on record: count; ≥50% inhibition by anti-HLA-DR mAb LB3.1; 0/0/0 = locus could not be determined. On the procedure: as §3, §4

Chain of DPA1*0201/DPB1*0501 (P20036 29-260 M62Q/Q81R/T114A/K142R/L158P/F191V/T259P, other chains not shown): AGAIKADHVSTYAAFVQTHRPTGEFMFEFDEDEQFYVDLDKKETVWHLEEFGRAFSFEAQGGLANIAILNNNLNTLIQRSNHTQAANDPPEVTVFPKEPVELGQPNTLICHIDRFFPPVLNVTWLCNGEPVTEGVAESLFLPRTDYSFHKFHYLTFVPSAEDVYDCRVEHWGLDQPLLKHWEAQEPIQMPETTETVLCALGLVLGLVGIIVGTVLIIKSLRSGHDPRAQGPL
Chain of DPA1*0201/DPB1*0101 (P20036 29-260 M62Q/Q81R/T114A/K142R/L158P/F191V, other chains not shown): as the sequence (P20036 29-260 M62Q/Q81R/T114A/K142R/L158P/F191V/T259P, other chains not shown) above, with P231T counted along it
Chain of DRB3*0202 (P01903 26-254 limits assumed): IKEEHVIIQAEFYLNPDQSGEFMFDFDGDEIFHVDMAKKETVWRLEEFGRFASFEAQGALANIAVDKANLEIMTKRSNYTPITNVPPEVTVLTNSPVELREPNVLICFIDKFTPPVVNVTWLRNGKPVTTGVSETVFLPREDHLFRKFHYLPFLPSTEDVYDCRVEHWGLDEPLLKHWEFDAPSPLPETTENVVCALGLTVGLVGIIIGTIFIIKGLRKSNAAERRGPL
Chain of DRB3*0202 (P79483 30-266 R40L/Y55F/D57E/Y59H/F66Y/L67A/T80R/V86D/S89Y/R103Q/A212P/R218S limits assumed): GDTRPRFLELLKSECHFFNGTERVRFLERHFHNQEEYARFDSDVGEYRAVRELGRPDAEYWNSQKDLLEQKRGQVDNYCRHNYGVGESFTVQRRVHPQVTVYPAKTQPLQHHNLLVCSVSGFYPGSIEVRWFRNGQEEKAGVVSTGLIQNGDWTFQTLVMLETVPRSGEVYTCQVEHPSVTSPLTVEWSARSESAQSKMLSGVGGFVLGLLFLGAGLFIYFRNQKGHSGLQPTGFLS

With `CC[C@H](C)[C@H](NC(=O)[C@H](Cc1ccc(O)cc1)NC(=O)[C@H](C)NC(=O)[C@H](CC(=O)O)NC(=O)[C@H](C)NC(=O)[C@@H](NC(=O)CNC(=O)[C@@H](N)CCC(N)=O)C(C)C)C(=O)N[C@H](C(=O)N[C@@H](CC(C)C)C(=O)N[C@H](C(=O)N[C@H](C(=O)N[C@@H](CC(C)C)C(=O)N1CCC[C@H]1C(=O)N[C@@H](CCCCN)C(=O)O)[C@@H](C)O)C(C)C)[C@@H](C)O` [3324.0011], the pIC50 on DPB1*0401 was 5.70.
On to `CC[C@H](C)[C@H](NC(=O)[C@H](CC(=O)O)NC(=O)[C@H](CC(=O)O)NC(=O)[C@H](CO)NC(=O)[C@@H](NC(=O)[C@@H](N)CCCCN)C(C)C)C(=O)N[C@H](C(=O)N[C@@H](Cc1ccc(O)cc1)C(=O)N[C@H](C(=O)N[C@@H](C)C(=O)N[C@H](C(=O)N[C@@H](C)C(=O)N[C@H](C(=O)N[C@@H](CC(C)C)C(=O)N1CCC[C@H]1C(=O)O)[C@@H](C)O)[C@@H](C)O)C(C)C)[C@@H](C)O` [3324.0013], for which the pIC50 is 5.28 on DRB3*0202, 5.79 against DPB1*0401, 5.22 against DRB3*0101 and 4.74 against DPA1*0103/DPB1*0201.
The compound `CC[C@H](C)[C@H](N)C(=O)N[C@H](C(=O)N[C@@H](Cc1ccc(O)cc1)C(=O)N[C@H](C(=O)N[C@@H](C)C(=O)N[C@H](C(=O)N[C@@H](C)C(=O)N[C@H](C(=O)N[C@@H](CC(C)C)C(=O)N1CCC[C@H]1C(=O)N[C@@H](CC(N)=O)C(=O)N[C@@H](Cc1ccc(O)cc1)C(=O)N[C@@H](CS)C(=O)N[C@@H](CCCNC(=N)N)C(=O)N[C@@H](C)C(=O)O)[C@@H](C)O)[C@@H](C)O)C(C)C)[C@@H](C)O` [3324.0014] gave a pIC50 against DPB1*0401 of 5.52.
As for `CC[C@H](C)[C@H](N)C(=O)N[C@@H](C)C(=O)N[C@@H](CO)C(=O)N[C@@H](CC(C)C)C(=O)N[C@@H](Cc1ccccc1)C(=O)N[C@@H](C)C(=O)N[C@@H](C)C(=O)N[C@@H](C)C(=O)NCC(=O)N[C@@H](CC(C)C)C(=O)N[C@@H](C)C(=O)N[C@@H](C)C(=O)N[C@@H](C)C(=O)N[C@@H](C)C(=O)N1CCC[C@H]1C(=O)O` [3324.0015], the negative logarithm of the IC50 (pIC50) on DPB1*0401 is 4.55; on DRB4*0101, 6.52.
Consider `CC[C@H](C)[C@H](NC(=O)[C@H](Cc1ccc(O)cc1)NC(=O)[C@H](C)NC(=O)[C@H](CC(=O)O)NC(=O)[C@H](C)NC(=O)[C@@H](N)C(C)C)C(=O)N[C@H](C(=O)N[C@@H](CC(C)C)C(=O)N[C@H](C(=O)N[C@H](C(=O)N[C@@H](CC(C)C)C(=O)N1CCC[C@H]1C(=O)N[C@@H](CCCCN)C(=O)N[C@@H](CO)C(=O)N[C@@H](CO)C(=O)O)[C@@H](C)O)C(C)C)[C@@H](C)O` [3324.0016], for which the negative-log IC50 (pIC50) was 5.60 against DPB1*0401, 7.40 at DPA1*0201/DPB1*0101 and 8.15 against DPA1*0201/DPB1*0501.
Consider `CC(C)C[C@H](NC(=O)CNC(=O)[C@H](C)NC(=O)[C@H](C)NC(=O)[C@H](C)N)C(=O)N[C@@H](C)C(=O)N[C@@H](C)C(=O)N[C@@H](C)C(=O)N[C@@H](C)C(=O)N1CCC[C@H]1C(=O)N[C@@H](CC(C)C)C(=O)N[C@@H](CCC(=O)O)C(=O)N[C@@H](CO)C(=O)N[C@@H](CCCNC(=N)N)C(=O)N[C@@H](CCC(N)=O)C(=O)O` [3324.0017], for which the pIC50 against DRB4*0101 was 7.55.
Consider `CSCC[C@H](N)C(=O)N[C@@H](CCCNC(=N)N)C(=O)N[C@@H](CC(N)=O)C(=O)N[C@H](C(=O)N[C@@H](Cc1ccccc1)C(=O)N[C@@H](CC(=O)O)C(=O)N[C@@H](CC(=O)O)C(=O)N[C@H](C(=O)N[C@H](C(=O)N1CCC[C@H]1C(=O)N[C@@H](C)C(=O)N[C@@H](CC(=O)O)C(=O)N[C@@H](Cc1ccccc1)C(=O)N[C@@H](CCCCN)C(=O)N[C@H](C(=O)O)C(C)C)C(C)C)C(C)C)C(C)C` [3337.0030], for which the “Response (SFC/10^6) Total” value in [1] was 213 SFC/10^6 and 133 SFC/10^6 and 907 SFC/10^6. Besides, the “Response (SFC/10^6) IFNg” value in assay [2] was 103 SFC/10^6 and 460 SFC/10^6. In addition, the “Response (SFC/10^6) IL-5” value in [3] is 110 SFC/10^6 and 133 SFC/10^6 and 447 SFC/10^6.
In the case of `CSCC[C@H](NC(=O)[C@@H]1CCCN1C(=O)CNC(=O)[C@@H](NC(=O)[C@H](CC(C)C)NC(=O)[C@@H]1CCCN1C(=O)[C@H](CCCCN)NC(=O)[C@H](C)NC(=O)[C@H](CO)NC(=O)[C@H](CCCCN)NC(=O)[C@@H](NC(=O)[C@H](CCC(=O)O)NC(=O)[C@H](Cc1c[nH]c2ccccc12)NC(=O)[C@@H](N)CC(C)C)C(C)C)[C@@H](C)O)C(=O)N[C@@H](CC(N)=O)C(=O)O` [3337.0031], the “Response (SFC/10^6) Total” value in [1] is 90 SFC/10^6 and 1713 SFC/10^6. For the same compound, in [2], the “Response (SFC/10^6) IFNg” value was 90 SFC/10^6 and 703 SFC/10^6. Moreover, the “Response (SFC/10^6) IL-5” value in assay [3] was 1010 SFC/10^6.
For the compound “Bet v 1 (111-125): epitope region of allergen Bet v 1, Birch”, the Donors responding in assay [1] (number of allergic donors recognizing the epitope region) is on record as 3. Also, the “% responding” value in assay [1] (percent of tested allergic donors responding) is recorded as 30.0%. The “Total SFC” value in assay [1] (total response to the epitope region) is listed as 1132 SFC. The “Region restriction(s) DP” value in the assay with HLA-DP is recorded as 0. For the same compound, the “Region restriction(s) DQ” value with HLA-DQ came out at 0. Moreover, in the assay on HLA-DR, the “Region restriction(s) DR” value came out at 2.
